Measured values from patent US20240226100A1, “CONTROL OF PROTEIN EXPRESSION WITH TMP-PROTAC COMPOUNDS” (THE TRUSTEES OF THE UNIVERSITY OF PENNSYLVANIA, priority 2021, published 2024).
Structures can show the parent of a compound that is named as a salt. Where a SMILES comes first, the peptide text is derived from it. The star is where a group is joined. Cbz = O=C(OCc1ccccc1)*

What was measured:
eDHFR-YFP [1] = test: Inhibitor test in HEK293T eDHFR-YFP+ cells, Western blot; assay type: cell-based, Escherichia coli; details: inhibitor pre-incubated 1 h, then 100 nM 7c for 12 h
Experimental: Cells were then isolated as previously described and prepared for Western blot analysis. For readout by flow cytometry, 3×10^5 HEK293T^eDHFR-YFP+ cells were seeded in a clear (Falcon) 12-well plate (5×10^5 cells/well) in complete media and the cells were treated as described above the following day. Cells were washed, trypsinized, and collected following total of 13 h of incubation, and their YFP expression was analyzed on flow cytometer (BD).

eDHFR-YFP [2] = test: Time and dose-dependent degradation of YFP in Jurkat-DYL / Jurkat eDHFR-YFP+ cells, flow cytometry; assay type: cell-based, Escherichia coli; details: Jurkat-DYL; 4, 8 and 18 h incubation, varying doses
Experimental: Likewise, Jurkat eDHFR-YFP (Jurkat^eDHFR-YFP+) cells are seeded in clear (Falcon) 12-well plates (3×10^5 cells/well) in complete media. […]

[3] = test system: DHFR-YFP (DY) direct fusion protein; test: Degradation mechanism in Jurkat-DYL cells pre-treated with epoxomicin or hydroxychloroquine sulfate, flow cytometry; assay type: cell-based, Escherichia coli; details: Jurkat-DYL pre-treated with DMSO, epoxomicin or hydroxychloroquine sulfate 2 h, then compound 4 h
Experimental: In FIG. 2, flow cytometric analysis is used to measure Jurkat-DYL cells expressing DHFR-YFP (DY) direct fusion protein pre-treated with DMSO, epoxomicin (EPOX), or hydroxychloroquine sulfate (HCS) for 2 hours before DMSO or compound 7b treatment for 4 hours.

eDHFR-YFP [4] = test: Degradation of eDHFR-YFP in HEK293T eDHFR-YFP+ cells, Western blot with anti-YFP antibody; assay type: cell-based, Escherichia coli; details: 24 h
Experimental: HEK293T eDHFR-YFP (HEK293T^eDHFR-YFP+) and OVCAR8 eDHFR-luc (OVCAR8^eDHFR-luc+) cells are prepared in clear (Falcon) 6-well plates (5×10^5 cells/well) and cultured in complete media. Compound 7c is solubilized in 100% DMSO to 10 mM. 10 mM 7c is serially diluted in sterile water accordingly and each dose administered to cells in fresh media at equal volume, such that the final concentration of DMSO in cell media is <1%. Once incubation with drug is completed, media is removed by vacuum, cells are washed with phosphate-buffered saline (PBS), trypsonized at 37° C., quenched with media, and centrifuged (Thermo Scientific Sorvall Legend X1R) at 1000 RPM for 5 minutes. Media and cell debris are removed by vacuum.
Once cells are isolated by centrifugation (Thermo Scientific Sorvall Legend X1R), they are solubilized in radioimmunoprecipitation assay (RIPA) lysis buffer with protease inhibitor. Cell lysate is incubated on ice for 30 minutes, sonicated, then centrifuged (Thermo Scientific Sorvall Legend Micro 21R) at 14,800 RPM for 10 minutes. Supernatant is removed and transferred to a new Eppendorf tube.
Using Thermo Scientific bicinchoninic acid (BCA) assay kit, total cell protein is quantified and compared to bovine serum albumin (BSA) standards ranging from 10 to 0.625 mg/mL. Cell lysate is aliquoted into a 96-well clear plate (Falcon) and mixed with reagent and shaken at 37° C. for 30 minutes. Samples are analyzed by plate reader (ThermoFisher Varioskan Plusplate), where absorbance is measured at […]. A calibration curve is developed, and samples are prepared to equal mass (mg) of total protein for gel electrophoresis.
Cell lysate is prepared by mixing with 4 uL of loading dye and PBS to give equal total protein and equal total volume across all samples. Each sample is loaded into a NuPage gel (4-12% Bis-tris) and developed in NuPage MES Running Buffer. Once complete, the gel is removed and prepared for protein transfer to membrane. […]

[5] = test system: FAP CAR-eDHFR direct fusion (DF); test: Dose response of surface CAR expression in primary human FAP-eDHFR DF CAR T cells, flow cytometry; assay type: cell-based; details: different doses, 24 hours
Experimental: Generated CAR T cells were pelleted, resuspended in 2% BSA in PBS (Invitrogen), and incubated with Alexa Fluor® 647 AffiniPure F(ab′2) fragment goat anti-mouse IgG (Jackson ImmunoResearch Laboratories) for 30 minutes at room temperature. Stained cells were washed 3 times with PBS, and were analyzed on a flow cytometer (LSR II, BD Biosciences) for CAR and/or BFP expression. All flow data were analyzed using FlowJo software (FlowJo).
Following incubation, the cells were washed and stained with Alexa Fluor® 647 AffiniPure F(ab′2) fragment goat anti-mouse IgG (Jackson ImmunoResearch Laboratories) as described under “Flow Cytometry”, and their surface expression was analyzed on a flow cytometer (LSR II, BD Biosciences).
Data plotted as raw CAR stain fluorescence is shown in the left panel and percent of maximum CAR expression is shown in the right panel.
Values are reported as percent of maximum CAR expression (i.e. relative to CAR T cells that were treated with vehicle control). Each color represents a different donor (n=3).

[6] = test system: FAP CAR-eDHFR direct fusion (DF); test: Inhibitor test in primary human FAP-eDHFR DF CAR T cells, flow cytometry; assay type: cell-based; details: inhibitor pre-incubated 1 hour, then 100 nM 7c for 4 hours
Experimental: Following pre-incubation, either 100 nM 7c or vehicle control DMSO (Sigma) was added to the wells, and cells were incubated with the drug for another 4 hours. Following incubation, the cells were washed and their surface CAR expression was assessed on a flow cytometer (BD Biosciences).
Following pre-incubation, the cells were incubated with 100 nM 7c for 4 hours and their CAR expression was assessed on a flow cytometer.

FAP-eDHFR DF CAR T cells [7] = details: 10:1 E:T ratio overnight, I45 huFAP target cells
FAP-eDHFR DF CAR T cells [8] = details: 1 hour at 37° C., with or without 5 μM unlabeled TMP
Experimental: 3×10^6 CAR T cells were incubated with 6×10^6 counts per minute (cpm) of [^18F]FPTMP for 60 minutes in the presence or absence of unlabeled 5 μM TMP. Following incubation, cells were centrifuged at 1200 rpm and washed 3 times with cold PBS (Corning). After the third wash, the cell pellet was resuspended in 900 μL of PBS and split into 3 technical replicates of 300 μL. Radiotracer uptake was quantified on a gamma counter (PerkinElmer) and analyzed by dividing counts by the injected dose (ID) of [^18F]FPTMP. The final uptake was reported as a ratio between % ID normalized per 10^6 cells (% ID/10^6 cells) of the [^18F]FPTMP group and the blocked control (i.e. cells that were incubated with both unlabeled TMP and [^18F]FPTMP).

Q: For `Cn1cnc(N)c2ncnc1-2` [3-Methyladenine], which “effect of inhibitor on eDHFR-YFP degradation induced by 7c” value (“effect of inhibitor … by 7c” below) (eDHFR-YFP [1]) is on record?
A: does not

Q: How did the “degradation of YFP (eDHFR fusion protein)” value (eDHFR-YFP [2]) turn out when `COc1cc(Cc2cnc(N)nc2N)cc(OC)c1OCC(=O)NCCOCCOCCNc1cccc2c1C(=O)N(C1CCC(=O)NC1=O)C2=O` (centres unmarked) [Compound 7a, 2-(4-((2,4-diaminopyrimidin-5-yl)methyl)-2,6-dimethoxyphenoxy)-N-(2-(2-(2-((2-(2,6-dioxopiperidin-3-yl)-1,3-dioxoisoindolin-4-yl)amino)ethoxy)ethoxy)ethyl)acetamide] was run?
A: degrade eDHFR fusion proteins to low/no functional expression

Q: What does the source list for `COc1cc(Cc2cnc(N)nc2N)cc(OC)c1OCCCC(=O)NCCOCCNc1cccc2c1C(=O)N(C1CCC(=O)NC1=O)C2=O` (centres unmarked) [Compound 7b, 4-(4-((2,4-diaminopyrimidin-5-yl)methyl)-2,6-dimethoxyphenoxy)-N-(2-(2-((2-(2,6-dioxopiperidin-3-yl)-1,3-dioxoisoindolin-4-yl)amino)ethoxy)ethyl)butanamide]?
A: degradation of YFP (eDHFR fusion protein) (eDHFR-YFP [2]): degrade eDHFR fusion proteins to low/no functional expression; mechanism of degradation of eDHFR-POI [3]: primarily via a proteosome-mediated mechanism of degradation

Q: For `COc1cc(Cc2cnc(N)nc2N)cc(OC)c1OCCCC(=O)NCCOCCOCCOCCOCCOCCOCCNc1cccc2c1C(=O)N(C1CCC(=O)NC1=O)C2=O` (centres unmarked) [Compound 7e, 4-(4-((2,4-diaminopyrimidin-5-yl)methyl)-2,6-dimethoxyphenoxy)-N-(20-((2-(2,6-dioxopiperidin-3-yl)-1,3-dioxoisoindolin-4-yl)amino)-3,6,9,12,15,18-hexaoxaicosyl)butanamide], which “degradation of YFP (eDHFR fusion protein)” value (eDHFR-YFP [2]) is on record?
A: degrade eDHFR fusion proteins to low/no functional expression

Q: What about the “degradation of eDHFR-YFP in dose response screen” value (eDHFR-YFP [4]) of the same compound?
A: no degradation

Q: Which results are given for `COc1cc(Cc2cnc(N)nc2N)cc(OC)c1OCCCC(=O)NCCOCCOCCNc1cccc2c1C(=O)N(C1CCC(=O)N(C)C1=O)C2=O` (centres unmarked) [Compound 7f, 4-(4-((2,4-diaminopyrimidin-5-yl)methyl)-2,6-dimethoxyphenoxy)-N-(2-(2-(2-((2-(1-methyl-2,6-dioxopiperidin-3-yl)-1,3-dioxoisoindolin-4-yl)amino)ethoxy)ethoxy)ethyl)butanamide]?
A: downregulation of surface CAR expression in dose response assay [5]: does not result in downregulation of CAR expression from their surface; eDHFR-YFP degradation at 100 nM (eDHFR-YFP [4]; 100 nM): does not induce eDHFR-YFP degradation

Q: Which results are given for `CC[C@H](C)[C@H](NC(=O)[C@H]([C@@H](C)CC)N(C)C(C)=O)C(=O)N[C@H](C(=O)N[C@@H](CC(C)C)C(=O)[C@@]1(C)CO1)[C@@H](C)O` [Epoxomicin]?
A: effect of inhibitor on eDHFR-YFP degradation induced by 7c (eDHFR-YFP [1]): blocks degradation induced by 7c; effect of inhibitor on TMP-POM 7c-mediated degradation of CAR [6]: blocked TMP-POM 7c-mediated degradation of CAR

Q: Which “effect of inhibitor … by 7c” value (eDHFR-YFP [1]) does the source give for `CCN(CCO)CCCC(C)Nc1ccnc2cc(Cl)ccc12` (centres unmarked) [Hydroxychloroquine HCl] here?
A: does not

Q: Which “effect of inhibitor on TMP-POM 7c-mediated degradation of CAR” value (“effect of inhibitor … of CAR” for short) [6] does the source give for `CC(C)C[C@@H](C=O)NC(=O)[C@H](CC(C)C)NC(=O)[C@H](CC(C)C)NC(=O)OCc1ccccc1` [MG132] (Cbz-Leu-Leu-Leu-aldehyde) here?
A: blocked TMP-POM 7c-mediated degradation of CAR

Q: `NS(=O)(=O)OC[C@@H]1C[C@@H](n2ccc3c(N[C@H]4CCc5ccccc54)ncnc32)C[C@@H]1O` [MLN4924] was tested. Which “effect of inhibitor … by 7c” value (eDHFR-YFP [1]) did it give?
A: blocks degradation induced by 7c

Q: What about the “effect of inhibitor … of CAR” value [6] of the same compound?
A: blocked TMP-POM 7c-mediated degradation of CAR

Q: Which results are given for `COc1cc(Cc2cnc(N)nc2N)cc(OC)c1OCCC[18F]` [[18F]FPTMP, [^18F]Fluoropropyl-Trimethoprim]?
A: effect of radiotracer exposure on CAR T cell cytotoxic function (FAP-eDHFR DF CAR T cells [7]): does not affect the effectors' ability to signal and kill target cells; in vitro uptake of radiolabeled TMP (FAP-eDHFR DF CAR T cells [8]): preserved in vitro uptake

Q: With `CO/C1=C\C(C)=C\[C@@H](C)[C@@H](O)[C@@H](C)C/C(C)=C/C=C/[C@H](OC)[C@@H]([C@@H](C)[C@@H](O)[C@H](C)[C@@]2(O)C[C@@H](O)[C@H](C)[C@@H](C(C)C)O2)OC1=O` [bafilomycin] as the compound, how does the “effect of inhibitor … of CAR” value [6] read?
A: had no impact on TMP-POM 7c function
